Experimental data as given in paper PMC7206685, “Interactions between host biogenic amines and sand fly salivary yellow-related proteins” (Parasites & Vectors, 2020).

Molecular target: T1, PagSP04 (Phlebotomus argentipes, UniProt Q0ZSU5)
T1 construct: secreted recombinant protein from HEK293S GnTI- cells (pTW5sec); IMAC and size exclusion
T1 sequence (Q0ZSU5 19-398): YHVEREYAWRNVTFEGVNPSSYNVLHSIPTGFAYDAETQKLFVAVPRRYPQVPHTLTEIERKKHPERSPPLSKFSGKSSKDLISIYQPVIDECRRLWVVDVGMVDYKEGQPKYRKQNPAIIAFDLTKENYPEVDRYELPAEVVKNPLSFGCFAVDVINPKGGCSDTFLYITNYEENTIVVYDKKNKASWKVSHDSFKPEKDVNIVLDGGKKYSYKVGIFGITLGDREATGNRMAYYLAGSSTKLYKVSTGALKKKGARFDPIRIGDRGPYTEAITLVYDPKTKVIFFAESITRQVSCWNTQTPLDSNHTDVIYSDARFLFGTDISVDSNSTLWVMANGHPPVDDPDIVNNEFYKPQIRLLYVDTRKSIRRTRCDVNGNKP
Assay: microscale thermophoresis
Format: binding
Source text: microscale thermophoresis on PagSP04

Compound	Kd
NCCc1c[nH]cn1 [Histamine]	9.3 µM
NCCc1c[nH]c2ccc(O)cc12 [Serotonin]	0.0869 µM
